Consider one compound from patent US8268836B2, “Compound useful as a c-Met inhibitor” (Eli Lilly and Company, priority 2010, dated 2012).

Like-named read-outs stand apart in the source and are kept apart here. Bounds are passed on as bounds.

For series [1], the target named is T1, Met (pY1349) in NCl-H460 cells (Homo sapiens, UniProt P08581).
T1 construct: host or cells: NCI-H460
In words: HGF stimulated Met (pY1349) NCI-H460 cell-based ELISA. The following applies: HGF 100 ng/mL stimulated NCI-H460 cells; read-out: relative IC50, H460 assay (c-Met phosphorylation). As for the experimental part: NCl—H460 cells (purchased from ATCC) are cultured in RPMI 1640 media (Invitrogen) supplemented with 10% Fetal Bovine Serum (FBS) and plated (prior to becoming 70% confluent) in 96-well flat-bottom plates at a density of 20,000 cells per well in 80 μL volume. The cells are then incubated overnight in a cell culture incubator (5% CO2, 95% Relative Humidity (RH) and 37° C.) and allowed to attach to the plate. The following morning the cells are washed with 2 volumes of a Reduced Serum Media (RSM, RPMI 1640 media supplemented with 0.5% FBS). After removal of the last wash, 80 μL of RSM is added to each well of the cell plates. The cell plates are incubated for 2.5 h in a cell culture incubator, and then dosed with compounds. Compound inhibitors are first solubilized at 10 mM in 100% DMSO and then diluted to 100 μM with 2% DMSO RSM. […] After 1 h capture (at RT) the MSD® plate wells are washed with 1× Tris Wash Buffer, and then 150 μL of 1× Read Buffer T (with surfactant, MSD®) is added. Immediately after the addition of the Read Buffer, the plates are analyzed with a SECTOR 6000 MSD® Imager plate reader. Relative IC50 values are determined using MSD activity units by calculating percent inhibition with respect to on-plate “MIN” and “MAX” controls and then fitting the percent inhibition values and ten-point dose response data to a four-parameter logistic equation.
A general note: In an ELISA, binding on a coated surface is turned into a signal by an enzyme label.

Series [2] deals with 99 kinases. In words: Cerep Express Diversity Kinase Profile screening. The format is biochemical. An excerpt:
The Express Diversity Kinase Profile™ is a screening service developed by Cerep SA (Paris, France). Details of assay conditions and/or contact information can be found on their website http://www.cerep.fecerep/users/pages/catalog/profiles/catalog.asp).

Series [3] is described as follows: Plasma concentration in IVTI studies. The format is in vivo. The settings on record: athymic nude, mouse, oral, 10% acacia. On the procedure: In IVTI studies, each compound is administered orally and formulated in 10% w/v acacia. Mouse blood samples are collected with anti-coagulant (EDTA-purple top Vacutainer tube) post-dose using cardiac puncture techniques. Tubes are inverted for 3-5 times and are placed on ice until centrifugation at 3000 RPM (1800×g) for 10 min at 4° C. to obtain plasma. Aliquots of plasma are pipetted and stored in a clean 96 well plate. Plasma samples are stored immediately at −80° C. Shipments of plasma samples are packed in dry ice and samples are frozen at −80° C. until analysis.
A 0.1-mg/mL stock solution of each drug was prepared and is serially diluted into pooled mouse plasma to prepare standards ranging from 1 to 5000 ng/mL. Plasma standards or samples (0.025 mL) in 96-well plates are treated by protein precipitation with the addition of a 0.1-0.2 ml of methanol: acetonitrile (1/1, v/v) containing internal standard. […] Samples and standards are analyzed with a Sciex API 4000 Triple Quadrupole Mass Spectrometer (Sciex, Division of MDS Inc., Toronto, Canada) coupled to a Shimadzu HPLC System (LC-10AD, Shimadzu Corporation) and a Gilson 215 Autosampler. […] Quantitation is performed using multiple reaction monitoring (MRM) at the following transitions: Example 1 (m/z 363.05 to m/z 163.10) and the reference compound 20 (m/z 363.05 to m/z 163.10). […]

Series [4] is described as follows: Kinetic solubility screen (nephelometry). It counts as physicochemical. On the procedure: The assay is used to determine the concentration range in which a compound that has been pre-solubilized in DMSO at 10 mM will precipitate from a solution. The assay is conducted in a screening format on a 96-well plate and measures the nephelometry (light scattering) from precipitated compound in aqueous phosphate buffer (50 mM; pH 7.4). This method consists of a 2-hour RT (room temperature) incubation of compound in buffer at concentrations of 10, 20, 40, 60, 80, and 100 μM (where % DMSO is kept constant). Plates are pre-read by the nephelometer to determine if scratches or dust particles are present and this is used for background subtraction. The reported values are the concentrations at which the last soluble and first insoluble are achieved. These assays are not optimized to assess equilibrium solubility or determine a “true” kinetic solubility.

T1 sequence (P08581 25-1390): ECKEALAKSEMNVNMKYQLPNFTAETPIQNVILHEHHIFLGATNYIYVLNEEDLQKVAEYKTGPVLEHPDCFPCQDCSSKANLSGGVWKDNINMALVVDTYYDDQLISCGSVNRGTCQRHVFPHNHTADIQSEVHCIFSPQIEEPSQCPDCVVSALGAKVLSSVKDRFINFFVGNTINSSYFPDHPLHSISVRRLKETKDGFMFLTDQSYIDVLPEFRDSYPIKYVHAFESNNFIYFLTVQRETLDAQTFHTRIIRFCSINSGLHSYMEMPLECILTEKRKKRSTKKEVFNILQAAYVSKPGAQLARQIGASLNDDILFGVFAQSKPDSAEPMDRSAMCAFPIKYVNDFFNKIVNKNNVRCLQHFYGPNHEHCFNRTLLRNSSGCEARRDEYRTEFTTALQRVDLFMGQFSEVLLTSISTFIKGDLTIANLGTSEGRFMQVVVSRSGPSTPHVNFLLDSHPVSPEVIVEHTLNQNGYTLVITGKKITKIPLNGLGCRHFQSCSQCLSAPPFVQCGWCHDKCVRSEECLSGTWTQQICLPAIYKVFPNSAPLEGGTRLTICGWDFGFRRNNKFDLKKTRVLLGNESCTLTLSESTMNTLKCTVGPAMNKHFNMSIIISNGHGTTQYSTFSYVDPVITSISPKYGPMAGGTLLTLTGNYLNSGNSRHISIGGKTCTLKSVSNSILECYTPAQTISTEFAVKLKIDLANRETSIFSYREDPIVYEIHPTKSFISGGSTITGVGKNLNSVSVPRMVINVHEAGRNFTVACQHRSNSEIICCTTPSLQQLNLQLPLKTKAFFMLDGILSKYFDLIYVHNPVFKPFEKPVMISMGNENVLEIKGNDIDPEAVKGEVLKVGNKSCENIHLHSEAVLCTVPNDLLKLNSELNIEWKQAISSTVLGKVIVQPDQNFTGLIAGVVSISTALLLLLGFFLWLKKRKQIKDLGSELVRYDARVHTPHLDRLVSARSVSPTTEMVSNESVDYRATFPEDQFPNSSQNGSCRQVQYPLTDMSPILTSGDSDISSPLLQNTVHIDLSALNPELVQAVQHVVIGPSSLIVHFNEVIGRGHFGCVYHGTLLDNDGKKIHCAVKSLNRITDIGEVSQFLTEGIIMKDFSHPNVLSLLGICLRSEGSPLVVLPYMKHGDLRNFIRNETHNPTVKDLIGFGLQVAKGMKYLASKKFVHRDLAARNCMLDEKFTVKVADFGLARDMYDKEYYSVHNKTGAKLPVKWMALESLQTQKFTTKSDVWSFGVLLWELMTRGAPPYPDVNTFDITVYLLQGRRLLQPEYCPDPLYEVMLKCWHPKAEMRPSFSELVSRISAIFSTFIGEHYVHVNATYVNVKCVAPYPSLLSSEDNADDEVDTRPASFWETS

As for `Cn1cc(-c2ccc3nnc(Sc4ccc5nn(C)cc5c4)n3n2)cn1` [Example 1, 6-(1-Methyl-1H-pyrazol-4-yl)-3-(2-methyl-2H-indazol-5-ylthio)-[1,2,4]triazolo[4,3-b]pyridazine], the IC50 in series [1] amounted to 36 nM. For the same compound, in series [2], the “Kinases inhibited in Cerep screening of 99 kinases” value was “inhibited only c-Met”. For the same compound, the concentration at 8 h in series [3] (8 mg/kg, read-out: Plasma conc. 8 mg/Kg after 8 h) came to 141 ng/mL; in series [3] (20 mg/kg, read-out: Plasma conc. 20 mg/Kg after 8 h), 318 ng/mL. The “1st insoluble pH 7.4” value in series [4] (50 mM phosphate buffer pH 7.4, 2 h RT, from 10 mM DMSO) is recorded as “Non detect”. The solubility at 2 h in series [4] (aqueous phosphate buffer, aqueous buffer, kinetic from dmso stock, 50 mM phosphate buffer pH 7.4, 2 h RT, from 10 mM DMSO, read-out: Last soluble pH 7.4) was over 100 µM. Besides, the “fold more soluble than the reference compound in pH 7.4 buffer” value in series [4] (kinetic solubility screen pH 7.4) was “at least 3 fold”.

Broadly, the IC50 is the concentration needed to halve the response being measured.
